Where a name gives a salt, the structure may show the parent alone.
Columns and labels:
Conditions in all cases: averaged IC50
[1] = target: His-tagged recombinant human AXL cytoplasmic domain (Homo sapiens (Human), UniProt P30530); experiment: AXL Enzyme Assay (LanthaScreen Eu Kinase Binding, TR-FRET)
Summary of the method: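 LanthaScreen Eu kinase binding format, incubated 60 min at 22 °C and read by TR-FRET dual-wavelength emission ratio as percent of control. IC50 taken where a 4-parameter logistic fit crosses 50 POC.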

[2] = target: His-tagged recombinant human MER cytoplasmic domain (Homo sapiens (Human), UniProt Q12866); experiment: MER Enzyme Assay (LanthaScreen Eu Kinase Binding, TR-FRET)
Sequence of His-tagged recombinant human MER cytoplasmic domain (Q12866 527-999): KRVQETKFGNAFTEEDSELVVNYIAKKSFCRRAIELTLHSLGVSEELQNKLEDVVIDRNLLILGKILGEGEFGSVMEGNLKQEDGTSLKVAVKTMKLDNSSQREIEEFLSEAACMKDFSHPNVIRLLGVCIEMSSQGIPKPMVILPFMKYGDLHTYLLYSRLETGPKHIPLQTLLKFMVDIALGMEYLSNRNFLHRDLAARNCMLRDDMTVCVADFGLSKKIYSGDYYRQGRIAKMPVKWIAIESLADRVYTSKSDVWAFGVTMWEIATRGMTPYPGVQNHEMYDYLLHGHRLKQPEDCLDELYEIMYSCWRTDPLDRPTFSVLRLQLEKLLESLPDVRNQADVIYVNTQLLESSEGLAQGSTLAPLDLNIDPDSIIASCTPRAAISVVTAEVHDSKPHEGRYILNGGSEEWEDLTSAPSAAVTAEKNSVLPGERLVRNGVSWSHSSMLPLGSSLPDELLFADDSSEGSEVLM
Summary of the method: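 LanthaScreen Eu kinase binding (tracer displacement) assay with His-tagged human MER cytoplasmic domain, 60 min incubation at 22 °C. TR-FRET dual-wavelength emission ratio converted to percent of control; IC50 is where the 4-parameter logistic fit crosses 50 POC.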

[3] = target: GST-tagged recombinant human TYRO3 kinase domain (Homo sapiens (Human), UniProt Q06418); experiment: TYRO3 Enzyme Assay (LanthaScreen Eu Kinase Binding, TR-FRET)
Sequence of GST-tagged recombinant human TYRO3 kinase domain (Q06418 518-790): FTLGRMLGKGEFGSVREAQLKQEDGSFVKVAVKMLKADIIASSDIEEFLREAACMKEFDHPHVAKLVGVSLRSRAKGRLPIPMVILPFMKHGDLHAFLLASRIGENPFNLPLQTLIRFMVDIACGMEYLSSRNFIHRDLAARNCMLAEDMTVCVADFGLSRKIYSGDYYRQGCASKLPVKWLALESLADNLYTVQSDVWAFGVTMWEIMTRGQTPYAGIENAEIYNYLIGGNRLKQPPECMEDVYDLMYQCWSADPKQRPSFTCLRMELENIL
Summary of the method: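 LanthaScreen Eu binding (tracer displacement) format read by TR-FRET after 60 min at 22 °C. Emission ratio converted to percent of control; IC50 taken where a 4-parameter logistic fit crosses 50 POC.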

Sequence of His-tagged recombinant human AXL cytoplasmic domain (P30530 473-894): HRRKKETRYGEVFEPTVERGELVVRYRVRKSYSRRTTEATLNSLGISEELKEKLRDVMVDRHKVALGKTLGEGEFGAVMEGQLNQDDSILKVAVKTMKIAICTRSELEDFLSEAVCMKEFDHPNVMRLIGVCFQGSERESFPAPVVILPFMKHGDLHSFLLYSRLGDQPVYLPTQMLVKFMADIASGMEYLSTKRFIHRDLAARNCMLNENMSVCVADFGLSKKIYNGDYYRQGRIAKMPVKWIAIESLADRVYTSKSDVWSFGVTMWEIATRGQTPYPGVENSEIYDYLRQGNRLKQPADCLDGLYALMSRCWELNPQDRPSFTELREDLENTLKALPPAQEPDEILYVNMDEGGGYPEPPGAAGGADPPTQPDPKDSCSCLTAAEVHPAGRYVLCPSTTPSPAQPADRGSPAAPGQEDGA

Structure (SMILES)	IC50 [1]	IC50 [2]	IC50 [3]
CNc1cc2c(cn1)c(-c1ccc(C3(N4CCN(C)CC4)CC3)cc1)nn2[C@H]1CC[C@@H](Oc2ccc(=O)n(C)n2)CC1 [Example 53, 2-methyl-6-(((1s,4s)-4-(6-(methylamino)-3-(4-(1-(4-methylpiperazin-1-yl)cyclopropyl)phenyl)-1H-pyrazolo[4,3-c]pyridin-1-yl)cyclohexyl)oxy)pyridazin-3(2H)-one]	< 0.01 µM	< 0.01 µM	0.1 to 1 µM
CCNc1cc2c(cn1)c(-c1cnn(C(CO)CO)c1)nn2[C@H]1CC[C@@H](Oc2ccc(F)cc2F)CC1 [Example 414, 2-(4-(1-((1s,4s)-4-(2,4-difluorophenoxy)cyclohexyl)-6-(ethylamino)-1H-pyrazolo[4,3-c]pyridin-3-yl)-1H-pyrazol-1-yl)propane-1,3-diol]	< 0.01 µM	< 0.01 µM	0.01 to 0.1 µM
CCNc1cc2c(cn1)c(-c1cnn(C)c1)nn2[C@H]1CC[C@@H](Oc2cccnc2C(F)(F)F)CC1 [Example 184, N-ethyl-3-(1-methyl-1H-pyrazol-4-yl)-1-((1s,4s)-4-((2-(trifluoromethyl)pyridin-3-yl)oxy)cyclohexyl)-1H-pyrazolo[4,3-c]pyridin-6-amine]	< 0.01 µM	< 0.01 µM	< 0.01 µM
CCNc1cc2c(cn1)c(-c1cnn(C)c1)nn2[C@H]1CC[C@@H](Oc2cccc(F)c2F)CC1 [Example 374, 1-((1s,4s)-4-(2,3-difluorophenoxy)cyclohexyl)-N-ethyl-3-(1-methyl-1H-pyrazol-4-yl)-1H-pyrazolo[4,3-c]pyridin-6-amine]	< 0.01 µM	< 0.01 µM	0.01 to 0.1 µM
CCNc1cc2c(cn1)c(-c1cnn(C)c1)nn2[C@H]1CC[C@@H](Oc2nccc(N(C)C)c2F)CC1 [Example 349, 1-((1s,4s)-4-((4-(dimethylamino)-3-fluoropyridin-2-yl)oxy)cyclohexyl)-N-ethyl-3-(1-methyl-1H-pyrazol-4-yl)-1H-pyrazolo[4,3-c]pyridin-6-amine]	< 0.01 µM	< 0.01 µM	0.1 to 1 µM
CNc1cc2c(cn1)c(-c1cnn(C(C)(C)C#N)c1)nn2[C@H]1CC[C@@H](Oc2cnn(C)c2C(F)(F)F)CC1 [Example 263, 2-methyl-2-(4-(1-((1s,4s)-4-((1-methyl-5-(trifluoromethyl)-1H-pyrazol-4-yl)oxy)cyclohexyl)-6-(methylamino)-1H-pyrazolo[4,3-c]pyridin-3-yl)-1H-pyrazol-1-yl)propanenitrile]	< 0.01 µM	< 0.01 µM	0.1 to 1 µM
CCNc1cc2c(cn1)c(-c1cnn(CC(CO)CO)c1)nn2[C@H]1CC[C@@H](Oc2cccnc2C(F)(F)F)CC1 [Example 205, 2-((4-(6-(ethylamino)-1-((1s,4s)-4-((2-(trifluoromethyl)pyridin-3-yl)oxy)cyclohexyl)-1H-pyrazolo[4,3-c]pyridin-3-yl)-1H-pyrazol-1-yl)methyl)propane-1,3-diol]	< 0.01 µM	< 0.01 µM	< 0.01 µM
CCNc1cc2c(cn1)c(-c1cnn(C)c1)nn2[C@H]1CC[C@@H](Oc2nccnc2C(F)(F)F)CC1 [Example 194, N-ethyl-3-(1-methyl-1H-pyrazol-4-yl)-1-((1s,4s)-4-((3-(trifluoromethyl)pyrazin-2-yl)oxy)cyclohexyl)-1H-pyrazolo[4,3-c]pyridin-6-amine]	< 0.01 µM	< 0.01 µM	< 0.01 µM
CCNc1cc2c(cn1)c(-c1cnn(C)c1)nn2[C@H]1CC[C@@H](Oc2c[nH]nc2C(F)(F)F)CC1 [Example 311, N-ethyl-3-(1-methyl-1H-pyrazol-4-yl)-1-((1s,4s)-4-((3-(trifluoromethyl)-1H-pyrazol-4-yl)oxy)cyclohexyl)-1H-pyrazolo[4,3-c]pyridin-6-amine]	< 0.01 µM	< 0.01 µM	< 0.01 µM
CNc1cc2c(cn1)c(-c1cnn(C)c1)nn2[C@@H]1CC[C@H](Oc2ccccc2)[C@@H](O)C1 [Example 471A, (1S,2S,5R)-5-(3-(1-methyl-1H-pyrazol-4-yl)-6-(methylamino)-1H-pyrazolo[4,3-c]pyridin-1-yl)-2-phenoxycyclohexan-1-ol]	< 0.01 µM	< 0.01 µM	0.01 to 0.1 µM
CCNc1cc2c(cn1)c(-c1cnn(C)c1)nn2[C@H]1CC[C@@H](Oc2cccc(C#N)c2C)CC1 [Example 382, 3-(((1s,4s)-4-(6-(ethylamino)-3-(1-methyl-1H-pyrazol-4-yl)-1H-pyrazolo[4,3-c]pyridin-1-yl)cyclohexyl)oxy)-2-methylbenzonitrile]	< 0.01 µM	< 0.01 µM	< 0.01 µM
CNc1cc2c(cn1)c(-c1cnn(C)c1)nn2[C@H]1CC[C@@H](Oc2cccc3ncccc23)CC1 [Example 377, N-methyl-3-(1-methyl-1H-pyrazol-4-yl)-1-((1s,4s)-4-(quinolin-5-yloxy)cyclohexyl)-1H-pyrazolo[4,3-c]pyridin-6-amine]	< 0.01 µM	< 0.01 µM	< 0.01 µM

The remaining lines, values ahead:

IC50 [1]	IC50 [2]	IC50 [3]	Structure (SMILES)
< 0.01 µM	< 0.01 µM	0.01 to 0.1 µM	CNc1cc2c(cn1)c(-c1cnn(C(CO)CO)c1)nn2[C@H]1CC[C@@H](Oc2ccccc2F)CC1 [Example 408, 2-(4-(1-((1s,4s)-4-(2-fluorophenoxy)cyclohexyl)-6-(methylamino)-1H-pyrazolo[4,3-c]pyridin-3-yl)-1H-pyrazol-1-yl)propane-1,3-diol]
< 0.01 µM	< 0.01 µM	< 0.01 µM	CCNc1cc2c(cn1)c(-c1cnn(CC(N)=O)c1)nn2[C@H]1CC[C@@H](Oc2nccc(C(F)(F)F)c2F)CC1 [Example 248, 2-(4-(6-(ethylamino)-1-((1s,4s)-4-((3-fluoro-4-(trifluoromethyl)pyridin-2-yl)oxy)cyclohexyl)-1H-pyrazolo[4,3-c]pyridin-3-yl)-1H-pyrazol-1-yl)acetamide]
< 0.01 µM	< 0.01 µM	< 0.01 µM	CCNc1cc2c(cn1)c(-c1ccc3c(c1)CNS3(=O)=O)nn2[C@H]1CC[C@@H](Oc2cn(C)nc2C(F)(F)F)CC1 [Example 221, 5-(6-(ethylamino)-1-((1s,4s)-4-((1-methyl-3-(trifluoromethyl)-1H-pyrazol-4-yl)oxy)cyclohexyl)-1H-pyrazolo[4,3-c]pyridin-3-yl)-2,3-dihydrobenzo[d]isothiazole 1,1-dioxide]
< 0.01 µM	< 0.01 µM	< 0.01 µM	CCNc1cc2c(cn1)c(-c1cnn(C[C@@H](O)CO)c1)nn2[C@H]1CC[C@@H](Oc2nccc(C#N)c2F)CC1 [Example 487, 2-(((1S,4s)-4-(3-(1-((R)-2,3-dihydroxypropyl)-1H-pyrazol-4-yl)-6-(ethylamino)-1H-pyrazolo[4,3-c]pyridin-1-yl)cyclohexyl)oxy)-3-fluoroisonicotinonitrile]
< 0.01 µM	< 0.01 µM	0.01 to 0.1 µM	CNC(=O)c1ccc(O[C@H]2CC[C@@H](n3nc(-c4cnn(C)c4)c4cnc(NC)cc43)CC2)c(C(F)(F)F)c1 [Example 393, N-methyl-4-(((1s,4s)-4-(3-(1-methyl-1H-pyrazol-4-yl)-6-(methylamino)-1H-pyrazolo[4,3-c]pyridin-1-yl)cyclohexyl)oxy)-3-(trifluoromethyl)benzamide]
< 0.01 µM	< 0.01 µM	0.01 to 0.1 µM	CCNc1cc2c(cn1)c(-c1cnn(CC(C)(O)CO)c1)nn2[C@H]1CC[C@@H](Oc2nccc(C(F)(F)F)c2F)CC1 (stereo partly drawn) [Example 238, 3-(4-(6-(ethylamino)-1-((1s,4s)-4-((3-fluoro-4-(trifluoromethyl)pyridin-2-yl)oxy)cyclohexyl)-1H-pyrazolo[4,3-c]pyridin-3-yl)-1H-pyrazol-1-yl)-2-methylpropane-1,2-diol]
< 0.01 µM	< 0.01 µM	< 0.01 µM	CCNc1cc2c(cn1)c(-c1cnn(C[C@H](O)[C@H](C)O)c1)nn2[C@H]1CC[C@@H](Oc2nccc(C(F)(F)F)c2F)CC1 [Example 239, (2S,3S)-1-(4-(6-(ethylamino)-1-((1s,4R)-4-((3-fluoro-4-(trifluoromethyl)pyridin-2-yl)oxy)cyclohexyl)-1H-pyrazolo[4,3-c]pyridin-3-yl)-1H-pyrazol-1-yl)butane-2,3-diol]
< 0.01 µM	< 0.01 µM	< 0.01 µM	CNc1cc2c(cn1)c(-c1cnn(C[C@H](O)CO)c1)nn2[C@H]1CC[C@@H](Oc2cccnc2C(F)(F)F)CC1 [Example 204, (S)-3-(4-(6-(methylamino)-1-((1s,4R)-4-((2-(trifluoromethyl)pyridin-3-yl)oxy)cyclohexyl)-1H-pyrazolo[4,3-c]pyridin-3-yl)-1H-pyrazol-1-yl)propane-1,2-diol hydrochloride]
< 0.01 µM	< 0.01 µM	< 0.01 µM	CCNc1cc2c(cn1)c(C1CCN(C)CC1)nn2[C@H]1CC[C@@H](Oc2cn[nH]c2C(F)(F)F)CC1 [Example 313, N-ethyl-3-(1-methylpiperidin-4-yl)-1-((1s,4s)-4-((5-(trifluoromethyl)-1H-pyrazol-4-yl)oxy)cyclohexyl)-1H-pyrazolo[4,3-c]pyridin-6-amine]
< 0.01 µM	< 0.01 µM	< 0.01 µM	CCNc1cc2c(cn1)c(-c1ccc(S(C)(=O)=O)cc1)nn2[C@H]1CC[C@@H](Oc2cn(C)nc2C(F)(F)F)CC1 [Example 290, N-ethyl-1-((1s,4s)-4-((1-methyl-3-(trifluoromethyl)-1H-pyrazol-4-yl)oxy)cyclohexyl)-3-(4-(methylsulfonyl)phenyl)-1H-pyrazolo[4,3-c]pyridin-6-amine]
